Measurements published in DBAASP.
In brackets after ≈: the same amount, converted by molar mass. Several values for one entry are separate records, joined by “and”; a condition that tells them apart may be missing. Identical values can stand only once. Values belong to the compound of their own block, whether it stands above or below them.

Key:
Assay in all cases: ≥ marks a high value that may be exact or a test limit, other limits are often not marked, values filed in µg/mL are converted to µM
[1] = test system: Escherichia coli ATCC 11775
[2] = test system: Escherichia coli ATCC 25922
[3] = test system: Escherichia coli ATCC 35218
[4] = test system: Salmonella enterica subsp. enterica serovar Typhi Vi+
[5] = test system: Salmonella enterica subsp. enterica serovar Typhimurium ATCC 14028
[6] = test system: Bacillus cereus ATCC 11778
[7] = test system: Bacillus subtilis ATCC 23857
[8] = test system: Candida albicans ATCC 10231
[9] = test system: Candida albicans NCTC 1467
[10] = test system: Enterococcus faecalis ATCC 29212
[11] = test system: Enterococcus faecalis NCTC 12697
[12] = test system: Escherichia coli NCTC 10418
[13] = test system: Escherichia coli
[14] = test system: Klebsiella pneumoniae ATCC 700603
[15] = test system: Listeria monocytogenes ATCC 15313
[16] = test system: Pseudomonas aeruginosa ATCC 27853
[17] = test system: Salmonella enterica subsp. enterica serovar Enteritidis ATCC 13076
[18] = test system: Staphylococcus aureus ATCC 12493
[19] = test system: Staphylococcus aureus ATCC 25923
[20] = test system: Staphylococcus aureus NCTC 10788
[21] = test system: Aspergillus niger CECT 2694
[22] = test system: Erwinia amylovora PMV 6076
[23] = test system: Escherichia coli DH5alpha
[24] = test system: Fusarium oxysporum f. sp. lycopersici ATCC 201829
[25] = test system: Penicillium digitatum PHI-26
[26] = test system: Penicillium expansum EPS 26
[27] = test system: Pseudomonas syringae EPS 94
[28] = test system: Rhizopus stolonifer CECT 2344
[29] = test system: Saccharomyces cerevisiae FY1679
[30] = test system: Xanthomonas vesicatoria 2133-2
[31] = test system: Candida albicans NCTC 3179
[32] = test system: Bacillus subtilis CMCC 63501
[33] = test system: Escherichia coli CMCC 44102
[34] = test system: Listeria monocytogenes ATCC 19115
[35] = test system: Pseudomonas aeruginosa CMCC 10104
[36] = test system: Staphylococcus aureus CMCC 26003
[37] = test system: Candida albicans MDM8
[38] = test system: Escherichia coli SBS 363
[39] = test system: Micrococcus luteus A270
[40] = test system: Bacillus cereus AS1.1846
[41] = test system: Listeria monocytogenes ATCC 19114
[42] = test system: Escherichia coli K-12 594
[43] = test system: Staphylococcus aureus ATCC 6538P
[44] = test system: Staphylococcus aureus SR1550

MIC [1]: 0.3 µM (≈ 0.664 µg/mL)
MIC [2]: 0.3 µM (≈ 0.664 µg/mL)
MIC [3]: 0.2 µM (≈ 0.443 µg/mL)
MIC [4]: 0.6 µM (≈ 1.33 µg/mL)
MIC [5]: 0.6 µM (≈ 1.33 µg/mL)
SMILES: CC[C@H](C)[C@H](NC(=O)[C@@H]1CCCN1C(=O)[C@H](CCCN=C(N)N)NC(=O)[C@@H]1CCCN1C(=O)[C@H](Cc1cnc[nH]1)NC(=O)[C@@H]1CCCN1C(=O)[C@@H]1CCCN1C(=O)[C@@H]1CCCN1C(=O)[C@H](CCCN=C(N)N)NC(=O)[C@@H]1CCCN1C(=O)[C@@H]1CCCN1C(=O)[C@H](Cc1ccc(O)cc1)NC(=O)[C@@H]1CCCN1C(=O)[C@H](CCCN=C(N)N)NC(=O)[C@@H]1CCCN1C(=O)[C@H](CCCCN)NC(=O)CN)C(=O)N[C@@H](CCCN=C(N)N)C(=O)N[C@H](C(=O)O)C(C)C [GKPRPYPPRPPPHPRPIRV]

MIC [6]: 4 µM and 8 µM
MIC [7]: 4 µM (≈ 6.03 µg/mL)
MIC [8]: 8 µM (≈ 12.1 µg/mL)
MIC [9]: 4 µM (≈ 6.03 µg/mL)
MIC [10]: ≥ 32 µM
MIC [11]: 8 µM (≈ 12.1 µg/mL)
MIC [2]: 4 µM and 8 µM
MIC [12]: 4 µM (≈ 6.03 µg/mL)
MIC [13]: 4 µM (≈ 6.03 µg/mL)
MIC [14]: 8 µM (≈ 12.1 µg/mL)
MIC [15]: 4 µM (≈ 6.03 µg/mL)
MIC [16]: 8 µM and 16 µM
MIC [17]: 4 µM (≈ 6.03 µg/mL)
MIC [18]: 4 µM (≈ 6.03 µg/mL)
MIC [19]: 4 µM (≈ 6.03 µg/mL)
MIC [20]: 2 µM (≈ 3.01 µg/mL)
SMILES: CC[C@H](C)[C@H](NC(=O)[C@H](CCCCN)NC(=O)[C@H](CCCCN)NC(=O)[C@H](C)NC(=O)[C@@H](NC(=O)[C@H](C)NC(=O)[C@H](CC(C)C)NC(=O)[C@H](CC(C)C)NC(=O)[C@H](C)NC(=O)[C@H](CCCCN)NC(=O)[C@H](CC(C)C)NC(=O)[C@H](CC(N)=O)NC(=O)[C@@H](N)CC(C)C)C(C)C)C(=O)N[C@@H](CC(C)C)C(N)=O [LNLKALLAVAKKIL]

MIC [21]: 6.12 µM (≈ 8.31 µg/mL)
MIC [22]: 5.92 µM (≈ 8.03 µg/mL)
MIC [23]: 4 µM (≈ 5.43 µg/mL)
MIC [24]: 0.849 µM (≈ 1.15 µg/mL)
MIC [25]: 4 µM (≈ 5.43 µg/mL)
MIC [26]: 13.7 µM (≈ 18.6 µg/mL)
MIC [27]: 3.16 µM (≈ 4.29 µg/mL)
MIC [28]: 8.66 µM (≈ 11.8 µg/mL)
MIC [29]: 16 µM (≈ 21.7 µg/mL)
MIC [30]: 13.4 µM (≈ 18.2 µg/mL)
SMILES: CC[C@H](C)[C@H](NC(=O)[C@H](CCCCN)NC(=O)[C@H](CCCCN)NC(=O)[C@H](Cc1ccccc1)NC(=O)[C@H](CC(C)C)NC(=O)[C@H](CCCCN)NC(=O)[C@@H](N)CCCCN)C(=O)N[C@@H](CC(C)C)C(=O)N[C@@H](CCCCN)C(=O)N[C@H](C(=O)N[C@@H](CC(C)C)C(N)=O)C(C)C [KKLFKKILKVL]

MIC [31]: 25.8 µM (≈ 70 µg/mL)
MIC [2]: 1.25 µM (≈ 3.4 µg/mL)
MIC [19]: 26.5 µM (≈ 72 µg/mL)
SMILES: CC[C@H](C)[C@H](NC(=O)[C@H](CCCCN)NC(=O)[C@@H](NC(=O)[C@@H](NC(=O)[C@H](CO)NC(=O)[C@H](CC(=O)O)NC(=O)[C@@H](NC(=O)[C@H](CC(N)=O)NC(=O)[C@@H](N)CC(=O)O)[C@@H](C)O)C(C)C)C(C)C)C(=O)N[C@@H](CCC(N)=O)C(=O)N[C@@H](CO)C(=O)N[C@@H](Cc1c[nH]c2ccccc12)C(=O)N[C@@H](Cc1ccccc1)C(=O)N[C@@H](CCCN=C(N)N)C(=O)N[C@@H](CCSC)C(=O)N[C@@H](C)C(=O)N[C@H](C(=O)N[C@@H](C)C(=O)N[C@@H](CCCN=C(N)N)C(=O)N[C@@H](CCCCN)C(=O)N[C@@H](CO)C(=O)N[C@@H](Cc1ccc(O)cc1)C(=O)N[C@@H](CC(C)C)C(=O)O)[C@@H](C)O [DNTDSVVKIQSWFRMATARKSYL]

MIC [32]: 26.2 µM (≈ 64 µg/mL)
MIC [33]: ≥ 105 µM
MIC [34]: 13.1 µM (≈ 32 µg/mL)
MIC [35]: ≥ 105 µM
MIC [36]: 13.1 µM (≈ 32 µg/mL)
SMILES: CC[C@H](C)[C@H](NC(=O)[C@H](CCCN=C(N)N)NC(=O)[C@H](CCCN=C(N)N)NC(=O)[C@H](Cc1c[nH]c2ccccc12)NC(=O)[C@@H](N)Cc1ccccc1)C(=O)N[C@@H](CCCN=C(N)N)C(=O)N[C@H](C(=O)N[C@H](C(=O)N1CCC[C@H]1C(=O)N[C@H](C(=O)N[C@H](C(=O)N[C@@H](CC(N)=O)C(=O)N1CCC[C@H]1C(=O)N[C@@H](Cc1c[nH]c2ccccc12)C(=O)N[C@@H](Cc1ccccc1)C(=O)N[C@@H](CC(C)C)C(=O)N[C@@H](CCC(N)=O)C(=O)N[C@@H](CCC(N)=O)C(=O)N[C@H](C(N)=O)[C@@H](C)O)C(C)C)C(C)C)[C@@H](C)O)C(C)C [FWRRIRVTPVVNPWFLQQT]

MIC [37]: 1.56 µM (≈ 1.85 µg/mL)
MIC [38]: 3.12 µM (≈ 3.71 µg/mL)
MIC [39]: 1.56 µM (≈ 1.85 µg/mL)
SMILES: CC[C@H](C)[C@H](NC(=O)[C@H](CC(C)C)NC(=O)[C@H](CCCCN)NC(=O)[C@H](CCCN=C(N)N)NC(=O)[C@H](Cc1ccccc1)NC(=O)[C@H](CC(C)C)NC(=O)[C@H](CO)NC(=O)[C@H](CC(C)C)NC(=O)[C@H](CC(C)C)NC(=O)[C@@H](N)CO)C(N)=O [SLLSLFRKLI]

MIC [40]: 16.4 µM (≈ 16 µg/mL)
MIC [41]: 16.4 µM (≈ 16 µg/mL)
SMILES: CC(C)[C@H](N)C(=O)N[C@@H](CO)C(=O)NCC(=O)N1CCC[C@H]1C(=O)N[C@@H](C)C(=O)NCC(=O)N1CCC[C@H]1C(=O)N1CCC[C@H]1C(=O)NCC(=O)N[C@H](C(=O)N[C@@H](Cc1cnc[nH]1)C(=O)O)[C@@H](C)O [VSGPAGPPGTH]

MIC [42]: 29.8 µM (≈ 25 µg/mL)
MIC [43]: 19 µM (≈ 16 µg/mL)
MIC [44]: ≥ 41.7 µM
SMILES: CC(C)C[C@H](NC(=O)[C@H](CC(C)C)NC(=O)[C@H](CC(C)C)NC(=O)[C@H](CC(C)C)NC(=O)[C@H](CC(C)C)NC(=O)[C@@H](N)CCCCN)C(=O)N[C@@H](CCCCN)C(N)=O [KLLLLLK]
